# How the values were obtained:
# [1] = tested on: human cervical cancer (ME-180) cells; experiment: In vitro radiosensitizing effect, MTT assay 6 days after X-ray, ME-180; format: cell-based
# From the text: (§1) Dibromo-diamino-benzene (Dibromo-phenylenediamine, Compound B) was obtained from TCI—America. Diiodo-diaminobenzene (Compound C) were synthesized, purified and crystallized in our laboratory, and the structures and purity were examined by NMR and mass spectrometry. MEM and fetal bovine serum (FBS), penicillin G and streptomycin were obtained from Hyclone Laboratories (UT, USA). Stock solution of cisplatin was freshly prepared in ultrapure water or saline, and stock solutions of Compounds A, B, C, D were prepared in pure ethanol, where the final concentration of ethanol was ≦1% when treated to cells.
# A human skin diploid fibroblast (GM05757 cell line) was obtained from the Coriell Cell Repository directly, while the human cervical cancer cell line (HeLa, ATCC#: CCL-2; or ME-180), human ovarian cancer cell line (NIH:OVCAR-3, ATCC#: HTB-161) and human lung cancer cell line (A549, ATCC#: CCL-185™), together with RPMI 1640, F-12K, McCoy's 5 A and L-15 culture media, were obtained from the American Type Culture Collection (ATCC) directly. Fetal bovine serum (FBS) was obtained from Hyclone Laboratories (UT, USA). The GM05757 normal cells and HeLa cells were cultivated with MEM (Hyclone) supplemented with 10% FBS, 100 units/mL penicillin G and 100 μg/mL streptomycin (Hyclone). The complete growth media for ME-180, NIH:OVCAR-3, A549 and MDA-MB-231 cells were the ATCC-formulated McCoy's 5 A Medium supplemented with 10% FBS, RPMI 1640 medium with 20%, F-12K medium with 10% FBS, and L-15 Medium (Leibovitz) with 10% FBS, respectively. The cells were maintained at 37° C. in a humidified atmosphere containing 5% CO2.
# (§2) The radiosensitizing effects of RSCs on cell viability were determined by the 3-[4,5-dimethylthiazol-2-yl]-2,5-diphenyl tetrazoliumbromide (MTT) assay. Cells were cultured in 96-well plates (5×10^3 cells/well) for 24 h. The culture medium was replaced by fresh culture medium and incubated for 12 h with varying drug concentrations. The cells were then irradiated by 225 kV X-ray (PRECISION X-RAD IR 225) at a dose rate of 2 Gy/min with various X-ray doses. After irradiation, the cells were incubated for 6 days. The MTT assay of cell viability was then conducted. Briefly, 100 μl new medium without phenol red containing 1.2 mM MTT (sigma) (i.e., adding 10 μl 12 mM MTT stock solution in PBS) were added to each well and incubated for 4 h. The medium was then removed, and the formazan crystals solubilized by 100 μL/well DMSO (or alternatively by 100 μl/well SDS and incubated for another 4 h). The surviving fraction was determined by measuring the absorbance at 540 nm (570 nm for SDS solubilization) using a Multiskan Spectrum UV/Vis microplate reader (Thermo Scientific), which is directly proportional to the number of viable cells.
# [2] = tested on: human normal cells (GM05757); experiment: In vitro radiation-induced toxicity in human normal cells, MTT assay 12 days after X-ray; format: cell-based; settings: GM05757, 12-hr treatment, then 0-10 Gy 225 keV X-ray, MTT at 12 days
# From the text: as §1, with “TCI-America.” for “TCI—America.”
# A human skin diploid fibroblast (GM05757 cell line) was obtained from the Coriell Cell Repository directly. Fetal bovine serum (FBS) was obtained from Hyclone Laboratories (UT, USA). The GM05757 normal cells were cultivated with MEM (Hyclone) supplemented with 10% FBS, 100 units/mL penicillin G and 100 μg/mL streptomycin (Hyclone). The cells were maintained at 37° C. in a humidified atmosphere containing 5% CO2.
# as §2, with “for 12” for “for 6”, “h. […]” for “h. The medium was then removed, and the formazan crystals solubilized by 100 μL/well DMSO (or alternatively by 100 μl/well SDS and incubated for another 4 h).”
smiles,measurement,setting,value
"Nc1cc(Br)c(Br)cc1N [Compound B, 4,5-dibromo-1,2-phenylenediamine]",enhancement of radiosensitivity of cancer cells to X-ray,"[1]; ME-180, 12-hr treatment, 0-10 Gy 225 keV X-ray, MTT at 6 days",significant enhancement in the radiosensitivity
same,killing of cancer cells,"[1]; ME-180, 50 Gy x-ray with about 100 μM compound, about 20% survived without any RSC",early all cancer cells were killed
same,radiation toxicity in human normal cells,[2],no radiation toxicity

# Reference: patent US9655965B2, “Radiosensitizer compounds for use in combination with radiation” (priority 2013, dated 2017)
